Earlier results, collected in patent publication US20030087306A1, “Methods for identifying novel multimeric agents that modulate receptors” (priority 1998, published 2003).
Counter-ions that a name gives are not always drawn. Like-named read-outs stand apart in the source and are kept apart here.

Key:
[1] = biological target: 5-HT1D receptor; settings: for potency (pD2 range): rabbit saphenous vein rings
[2] = biological target: T1, 5-HT1F receptors (Homo sapiens, UniProt P30939)
T1 construct: expressed in transfected cells; host or cells: NIH-3T3 cells
T1 sequence (P30939 1-366): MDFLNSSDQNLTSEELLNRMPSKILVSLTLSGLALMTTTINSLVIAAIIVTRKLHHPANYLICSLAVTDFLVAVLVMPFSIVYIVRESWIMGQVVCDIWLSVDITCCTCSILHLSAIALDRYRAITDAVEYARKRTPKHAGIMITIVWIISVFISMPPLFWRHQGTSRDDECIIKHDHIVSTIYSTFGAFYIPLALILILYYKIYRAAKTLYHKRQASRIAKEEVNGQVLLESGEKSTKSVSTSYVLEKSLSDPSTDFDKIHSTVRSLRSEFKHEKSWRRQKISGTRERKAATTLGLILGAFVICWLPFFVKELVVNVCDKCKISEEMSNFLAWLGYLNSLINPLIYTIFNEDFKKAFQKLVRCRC

[3] = biological target: β2-adrenergic receptor (Homo sapiens, UniProt P07550); settings: for duration of action / onset of action (in words): human, in vivo
[4] = tested on: cholinergic receptors on bronchial smooth muscle
[5] = biological target: T2, 5-HT1C binding site (Homo sapiens, UniProt P28335)
T2 sequence (P28335 33-458): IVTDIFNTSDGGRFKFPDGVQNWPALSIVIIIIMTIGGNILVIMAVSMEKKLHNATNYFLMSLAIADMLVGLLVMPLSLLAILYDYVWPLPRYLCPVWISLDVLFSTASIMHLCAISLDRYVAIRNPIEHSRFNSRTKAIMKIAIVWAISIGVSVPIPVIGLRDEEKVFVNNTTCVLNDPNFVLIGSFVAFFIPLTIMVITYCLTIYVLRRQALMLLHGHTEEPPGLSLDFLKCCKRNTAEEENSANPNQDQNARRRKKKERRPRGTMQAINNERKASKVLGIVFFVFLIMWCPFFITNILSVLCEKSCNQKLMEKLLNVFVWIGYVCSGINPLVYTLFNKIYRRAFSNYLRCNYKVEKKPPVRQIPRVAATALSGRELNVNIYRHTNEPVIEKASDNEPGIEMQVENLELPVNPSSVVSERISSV

[6] = biological target: T3, 5-HT1D receptor; settings: forskolin-stimulated adenylyl cyclase, guinea-pig substantia nigra
T3 construct: rows headed: efficacy compared to 5-HT; other: forskolin-stimulated adenylyl cyclase, guinea-pig substantia nigra

[7] = biological target: 5-HT2 binding site (Homo sapiens, UniProt P28223)
[8] = biological target: 5-HT1E binding site (Homo sapiens, UniProt P28566)
[9] = biological target: 5-HT1D binding site
[10] = biological target: T4, 5-HT1A binding site (Homo sapiens, UniProt P08908)
T4 sequence (P08908 1-422): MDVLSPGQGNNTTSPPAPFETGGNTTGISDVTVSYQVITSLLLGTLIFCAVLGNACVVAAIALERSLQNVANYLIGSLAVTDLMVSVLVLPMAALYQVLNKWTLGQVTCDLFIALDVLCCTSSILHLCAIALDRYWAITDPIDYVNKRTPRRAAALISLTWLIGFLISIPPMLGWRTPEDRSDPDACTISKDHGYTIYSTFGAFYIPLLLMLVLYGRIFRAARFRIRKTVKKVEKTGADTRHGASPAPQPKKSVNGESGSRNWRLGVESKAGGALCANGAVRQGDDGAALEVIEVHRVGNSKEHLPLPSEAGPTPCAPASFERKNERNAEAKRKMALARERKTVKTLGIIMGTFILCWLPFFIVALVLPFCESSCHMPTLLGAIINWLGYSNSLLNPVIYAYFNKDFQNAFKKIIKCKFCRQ

[11] = biological target: 5-HT1B binding site (Rattus norvegicus, UniProt P28564)
[12] = biological target: 5-HT1D receptor; settings: K+-evoked [3H]-5-HT release, guinea-pig frontal cortex slices
[13] = biological target: T5, AT1 receptor (Homo sapiens, UniProt P30556)
T5 sequence (P30556 1-359): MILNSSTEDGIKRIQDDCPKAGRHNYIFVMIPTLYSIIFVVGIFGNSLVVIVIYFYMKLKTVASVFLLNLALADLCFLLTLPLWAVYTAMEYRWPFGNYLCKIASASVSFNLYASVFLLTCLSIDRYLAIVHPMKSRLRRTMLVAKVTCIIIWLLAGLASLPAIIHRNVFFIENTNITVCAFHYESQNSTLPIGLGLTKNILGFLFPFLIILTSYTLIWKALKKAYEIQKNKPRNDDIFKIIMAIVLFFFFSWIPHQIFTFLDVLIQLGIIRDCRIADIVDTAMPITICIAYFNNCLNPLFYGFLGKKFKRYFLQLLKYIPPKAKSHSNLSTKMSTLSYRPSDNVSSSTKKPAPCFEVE

[14] = tested on: neuropeptide release; settings: trigeminal ganglion stimulation in cats
[15] = tested on: 5-HT1-like receptor
[16] = biological target: T6, 5-HT1 receptor (Cricetulus griseus, UniProt P46636); settings: luciferase expression, CHO cells
T6 construct: These CHO cells are screened for endogenous G protein-coupled receptors; endogenous in cells; host or cells: CHO cells with a cAMP-responsive luciferase reporter

[17] = tested on: angiotensin II receptor sites; settings: rat adrenal cortical membranes and cultured rat smooth muscle cells
[18] = biological target: T7, AT2 receptor (Homo sapiens, UniProt P50052)
T7 sequence (P50052 1-363): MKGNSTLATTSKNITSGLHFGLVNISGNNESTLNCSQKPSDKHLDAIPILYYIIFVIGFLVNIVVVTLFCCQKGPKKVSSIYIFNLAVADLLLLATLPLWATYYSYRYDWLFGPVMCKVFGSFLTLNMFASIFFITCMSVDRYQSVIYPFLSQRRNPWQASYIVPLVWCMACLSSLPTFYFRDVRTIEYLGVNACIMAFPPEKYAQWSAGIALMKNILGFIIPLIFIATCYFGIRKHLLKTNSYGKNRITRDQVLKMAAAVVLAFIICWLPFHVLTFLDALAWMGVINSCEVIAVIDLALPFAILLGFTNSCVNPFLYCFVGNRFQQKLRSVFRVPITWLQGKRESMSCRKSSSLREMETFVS

[19] = tested on: human coronary artery; settings: for effectiveness in causing contraction of human isolated coronary artery: endothelium-denuded segments, in vitro

Chain of β2-adrenergic receptor (P07550 whole entry): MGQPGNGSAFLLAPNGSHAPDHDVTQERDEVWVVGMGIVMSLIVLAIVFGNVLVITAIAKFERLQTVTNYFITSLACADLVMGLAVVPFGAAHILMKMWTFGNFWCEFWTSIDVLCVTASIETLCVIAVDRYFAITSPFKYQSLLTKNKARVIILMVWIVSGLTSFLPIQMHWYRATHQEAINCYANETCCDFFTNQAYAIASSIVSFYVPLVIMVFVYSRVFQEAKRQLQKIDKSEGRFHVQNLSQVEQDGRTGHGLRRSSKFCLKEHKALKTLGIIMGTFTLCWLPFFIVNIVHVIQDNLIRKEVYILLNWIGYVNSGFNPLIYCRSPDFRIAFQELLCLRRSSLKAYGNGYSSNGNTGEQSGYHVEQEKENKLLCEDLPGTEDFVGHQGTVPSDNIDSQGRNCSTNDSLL
T6 sequence (P46636 whole entry): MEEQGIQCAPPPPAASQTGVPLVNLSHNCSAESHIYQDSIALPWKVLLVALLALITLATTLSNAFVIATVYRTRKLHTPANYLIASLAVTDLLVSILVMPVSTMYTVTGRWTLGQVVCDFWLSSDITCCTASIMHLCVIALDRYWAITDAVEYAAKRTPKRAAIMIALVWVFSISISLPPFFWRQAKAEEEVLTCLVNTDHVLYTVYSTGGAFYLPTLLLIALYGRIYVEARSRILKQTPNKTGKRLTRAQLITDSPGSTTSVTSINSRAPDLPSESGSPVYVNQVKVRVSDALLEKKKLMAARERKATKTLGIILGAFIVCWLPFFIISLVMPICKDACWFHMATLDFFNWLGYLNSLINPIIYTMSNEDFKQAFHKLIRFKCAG
Chain of 5-HT2 binding site (P28223 whole entry): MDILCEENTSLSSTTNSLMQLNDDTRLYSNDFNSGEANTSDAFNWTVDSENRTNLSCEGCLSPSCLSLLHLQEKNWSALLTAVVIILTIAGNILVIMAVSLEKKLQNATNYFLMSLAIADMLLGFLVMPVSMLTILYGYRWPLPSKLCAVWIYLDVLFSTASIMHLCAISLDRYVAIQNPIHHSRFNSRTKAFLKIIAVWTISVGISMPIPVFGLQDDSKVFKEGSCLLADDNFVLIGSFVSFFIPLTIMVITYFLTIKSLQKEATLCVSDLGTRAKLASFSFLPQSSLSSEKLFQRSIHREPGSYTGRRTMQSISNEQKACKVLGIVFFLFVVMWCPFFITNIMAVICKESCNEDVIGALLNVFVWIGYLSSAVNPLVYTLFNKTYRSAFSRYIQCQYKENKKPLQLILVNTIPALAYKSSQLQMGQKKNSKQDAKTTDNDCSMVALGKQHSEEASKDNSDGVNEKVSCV
Chain of 5-HT1B binding site (P28564 whole entry): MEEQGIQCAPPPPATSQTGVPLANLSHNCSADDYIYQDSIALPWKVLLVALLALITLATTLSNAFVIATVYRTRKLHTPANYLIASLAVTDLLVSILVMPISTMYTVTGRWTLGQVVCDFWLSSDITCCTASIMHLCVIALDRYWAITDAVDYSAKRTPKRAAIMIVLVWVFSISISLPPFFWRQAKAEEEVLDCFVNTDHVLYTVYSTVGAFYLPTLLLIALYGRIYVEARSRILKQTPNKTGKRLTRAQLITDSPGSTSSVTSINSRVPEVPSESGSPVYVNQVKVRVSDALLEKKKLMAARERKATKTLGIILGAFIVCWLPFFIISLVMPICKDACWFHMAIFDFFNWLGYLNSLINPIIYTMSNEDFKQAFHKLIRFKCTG
Chain of 5-HT1E binding site (P28566 whole entry): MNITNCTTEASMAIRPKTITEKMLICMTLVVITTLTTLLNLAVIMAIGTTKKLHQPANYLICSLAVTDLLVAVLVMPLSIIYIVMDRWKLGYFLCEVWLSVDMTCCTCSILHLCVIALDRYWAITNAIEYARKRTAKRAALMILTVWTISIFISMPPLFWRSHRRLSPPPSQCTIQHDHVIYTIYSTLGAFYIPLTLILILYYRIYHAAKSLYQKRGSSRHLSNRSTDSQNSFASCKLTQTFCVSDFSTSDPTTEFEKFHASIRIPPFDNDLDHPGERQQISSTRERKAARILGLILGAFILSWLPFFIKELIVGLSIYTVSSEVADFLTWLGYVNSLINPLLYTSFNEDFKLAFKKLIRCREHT

NCCc1c[nH]c2ccc(C(N)=O)cc12 [Example 5-CT, 5-carboxamidotryptamine]
potency (pD2 range) [1]: 7.2-7.6

NCCc1c[nH]c2ccc(O)cc12 [Example 5-HT]
receptor reserve ([2]; 5-HT-induced inhibition of FSCA): 90%
receptor occupancy required for half-maximal response ([2]; NIH-3T3 cells): about 10%
potency (pD2 range) [1]: 6.2-7.1

CC(Cc1ccc(O)cc1)NCC(O)c1cc(O)cc(O)c1 (centres unmarked) [Fenoterol]
duration of action [3]: 2 to 3 h
onset of action (in words) [3]: rapid onset

CC(C)[N+]1(C)[C@@H]2CC[C@H]1C[C@@H](OC(=O)C(CO)c1ccccc1)C2 (some centres unmarked) [Ipratropium]
persistence of significant effects ([4]; after inhalation): more than 4 hours
time over which maximal responses develop ([4]; after inhalation): 30 to 90 min
duration of useful response ([4]; some asthmatic patients): up to 6 hours

CS(=O)(=O)Nc1ccc(Cc2noc(-c3ccc4[nH]cc(CCN)c4c3)n2)cc1 [L-694,247]
pIC50 [5]: 6.42
pEC50 [6]: 9.1
pIC50 [7]: 6.50
pIC50 [8]: 5.66
affinity (pIC50) [9]: 10.03
pIC50 [10]: 8.64
affinity (pIC50) [11]: 9.08
pEC50 [12]: 9.4

CC(C)NCC(O)c1cc(O)cc(O)c1 (centres unmarked) [Metaproterenol]
onset of action (in words) [3]: within minutes
duration of effect after inhalation [3]: several hours
duration of effects after oral administration ([3]; oral): 3 to 4 h

Cc1cc(Cn2cnc3c2CC(C(=O)O)N(C(=O)C(c2ccccc2)c2ccccc2)C3)ccc1N (centres unmarked) [PD 123177]
affinity ([13]; AT1 receptor): low affinity

CCC(NC(C)C)C(O)c1ccc(O)c2[nH]c(=O)ccc12 (centres unmarked) [Procaterol]
duration of action [3]: about 5 hours
onset of action (in words) [3]: rapid onset of action

CN(C)CCc1c[nH]c2ccc(C[C@H]3COC(=O)N3)cc12 [Zolmitriptan]
neuropeptide release [14]: reduces neuropeptide release

c1ccc2c(c1)CC[C@H](CNCCCNC1=NCCCN1)O2 [alniditan, (−)—(R)-N-[3,4-dihydro-2H-1-benzopyran-2-ylmethyl-N′-(1,4,5,6-tetrahydro-2-pyrimidinyl)-1,3-propanediaminedihydrochloride]
potency compared with sumatriptan ([15]; anesthetized dogs): higher
common carotid arterial blood flow ([15]; anesthetized dogs, 0.63-80 μg/kg i.v.): reduces common carotid arterial blood flow
effect on other cardiovascular variables ([15]; coronary, mesenteric and renal arterial blood flow, vascular and airway resistance): comparatively little effect

Cc1ccc(C(=O)Oc2ccc(C(O)CNC(C)(C)C)cc2OC(=O)c2ccc(C)cc2)cc1 (centres unmarked) [bitolterol]
duration of effect after inhalation [3]: 3 to 6 h

CC(C)(C)NCC(O)COc1cccc2[nH]c(C#N)cc12 (centres unmarked) [cyanopindolol]
reversal of the response to 5-HT [16]: reversed

O=C(c1ccc(F)cc1)C1CCN(CCn2c(=O)[nH]c3ccccc3c2=O)CC1 [ketanserin]
reversal of the response to 5-HT [16]: not

CCCCc1nc(Cl)c(CO)n1Cc1ccc(-c2ccccc2-c2nn[nH]n2)cc1 [losartan]
inhibition of specific binding of 125I-angiotensin II [17]: inhibits the specific binding
affinity [18]: low affinity

CC(C)NCC(O)COc1cccc2[nH]ccc12 (centres unmarked) [pindolol]
reversal of the response to 5-HT [16]: reversed

CN(C)CCc1c[nH]c2ccc(Cn3cncn3)cc12 [rizatriptan]
maximum contractile response ([19]; compared with sumatriptan): lower maximum contractile response
effectiveness in causing contraction of human isolated coronary artery [19]: less effective than sumatriptan
effectiveness in causing contraction of human isolated coronary artery ([19]; listed as MK462): significantly less efficacious than 5-HT
effectiveness in causing contraction of human isolated coronary artery ([19]; listed as MK-462): significantly less effective than sumatriptan

CNS(=O)(=O)Cc1ccc2[nH]cc(CCN(C)C)c2c1 [sumatriptan]
effectiveness in causing contraction of human isolated coronary artery [19]: significantly less efficacious than 5-HT
affinity (pIC50) [9]: 8.22
efficacy, maximal contractile response (Emax) ([1]; compared to 5-HT and 5-CT): significantly greater

angiotensin II
selectivity for the AT subtypes ([13]; AT1 vs AT2): no selectivity
